# Measurements from patent publication US20240147995A1, “INSECT NEUROPEPTIDES 5” (Solasta Bio Limited, priority 2022, published 2024).
# Key:
# Plutella xylostella = assay: Leaf dip assay testing against Plutella xylostella (mortality); format: in vivo; details: unformulated SB-P-70; FIG. 6, after 96 hours; compared to negative control vehicle and Chlorantraniliprole
# Experimental: The assay was carried out based on IRAC susceptibility test method 019 (https://irac-online.org/methods/aphids-adultnymphs/). Fill a small 4 cm wide 3 cm high dish with a 1% agar treatment solution of the active chemical or control (ensuring 1 cm gap between the agar and the lid) and leave to set. Dip a 2.5 cm leaf disc into 3 ml of treatment solution allowing the treatment to coat the leaf. Leave the disc to dry for 1 hour and place onto the set agar. Place insects (Plutella xylostella) onto each of the leaf discs. Each unit is sealed with a close-fitting, ventilated lid. Place the agar dishes in a small plastic tray lined with moist tissue paper and ensure the water trays in the bottom of the incubator are filled with clean water and place within the incubator. An assessment of mortality is made at 72, 96 and 120 hours. Leaf dip assays were performed with SB-P-70, and compared to a negative control vehicle and a current commercial insecticide Chlorantraniliprole. The activity of SB-P-70 is shown in FIG. 6; SB-P-70 has good activity whilst being eco-friendly and targeted to specific pests unlike broad spectrum chemical insecticides such as Chlorantraniliprole.
# Spodoptera frugiperda = assay: Lepidoptera artificial diet assay against Spodoptera frugiperda (pupation and mortality); format: in vivo; details: unformulated SB-P-70; 1×10^−4 M in diet; L1 larvae; FIG. 8, after 168 hours; compared to negative control vehicle and DDT
# From the text: Frontier Lepidoptera artificial diet was made up by preparing agar at 1% and then mixing it with artificial diet powder. Peptide solution was aliquoted in 10 cells and diet poured straight onto it. The final concentration of the peptide was 1×10^−4 M, and each peptide was aliquoted in 10 cells. Once the diet solidified and cooled down, one L1 larvae was infested in each cell. The trays were sealed with heat and let larva were allowed to develop for 168 hrs. Finally, pupation and mortality were scored for. Lepidoptera artificial diet assays were performed with SB-P-70, and compared to a negative control vehicle and the insecticide dichlorodiphenyltrichloroethane (DDT).
substance,measurement,setting,value
[Hy]-KVKFSAWG-[NH2] (H-KVKFSAWG-NH2) [SB-P-70],"activity against Plutella xylostella (mortality, leaf dip assay)",Plutella xylostella,good activity
same,"activity against Spodoptera frugiperda (pupation and mortality, artificial diet assay)",Spodoptera frugiperda,much higher activity
